Data reported in patent publication US10576084B2, “Salt of fused heterocyclic derivative and crystal thereof” (KISSEI PHARMACEUTICAL CO., LTD., priority 2010, dated 2020).
Where a name gives a salt, the structure may show the parent alone.

What was measured:
[1] = type: physicochemical; details: for saturation solubility in 1st fluid: pH 1.2; for saturation solubility in 2nd fluid: pH 6.8
Procedure: Saturation Solubility Test
The compound (A) obtained in Example 2, the compound (B) crystals obtained in Comparative Example 2, and the compound (C) obtained in Comparative Example 3 were suspended in water, or in 1st fluid for dissolution test (hereinafter, referred to as “1st fluid”) or 2nd fluid (hereinafter, referred to as “2nd fluid”) described in the Reagents·Test Solutions for General Tests, the Japanese Pharmacopoeia, 15th Edition. The suspensions were incubated at 37° C. After filtering a part of the suspensions, the concentrations of the resulting filtrates were measured by HPLC, and the saturation solubilities were calculated and compared. The HPLC measurement conditions are as follows.
• Detector: Ultraviolet and visible spectrophotometer /wavelength: 225 nm • Column: GL Science Inertsil ODS-3,5 μm, 4.6×250 mm • Column temperature: a constant temperature of around 35° C. • Flow rate: 1.0 mL/min • Mobile phase A: 10 mM potassium dihydrogen phosphate aqueous solution adjusted to pH 5.5 with potassium hydroxide aqueous solution • Mobile phase B: Acetonitrile • Mobile phase ratio 0 to 30 min: mobile phase A/mobile phase B=70/30
The saturation solubility values of compound (A), compound (B) crystals, and compound (C) in water, 1st fluid, and 2nd fluid are shown in Table 2. […] The saturation solubility of compound (A) in 1st fluid was about 30 times and about 2 times higher than those of compound (B) crystals and compound (C), respectively. In 2nd fluid, the saturation solubility of compound (A) was about 10 times and about 70 times higher than those of compound (B) crystals and compound (C), respectively.

[2] = Stability test (storage under 90° C. open conditions, purity by HPLC); type: physicochemical
Procedure: Stability Test The compound (A) obtained in Example 2 was stored under 90° C. open conditions to examine stability. In stability measurement, the purity of a sample was measured by HPLC at the initial point and after 8 days, and the results were compared. The HPLC measurement conditions are as follows. Measurement Conditions • Detector: Ultraviolet and visible spectrophotometer/wavelength: 225 nm • Column: GL Science Inertsil ODS-3,5 μm, 4.6×250 mm • Column temperature: Constant temperature around 35° C. • Flow rate: 1.0 mL/min • Mobile phase A: 10 mM potassium dihydrogen phosphate aqueous solution adjusted to pH 5.5 with potassium hydroxide aqueous solution • Mobile phase B: Acetonitrile • (Mobile phase ratios are shown in Table 4) • Area measurement range: 54 minutes from the start of the analysis. Areas of the peaks in the blank were excluded from the calculations.

[3] = in vivo; set-up: species or system SD rats; details: male, SD, rat; for maximum drug concentration time (Tmax): po, 3 mg/kg
Procedure: Assay for Oral Absorbability
1) Preparation of Sample for Drug Concentration Measurement by Administration through Tail Vein
SD rats (Charles River, male, 7 weeks of age, 170 to 210 g) were used as experimental animals after fasting the rats overnight. N,N-dimethylacetamide (0.2 mL), saline (0.798 mL) and 2N-NaOH (0.002 mL) were added in these amounts with respect to 1 mg of the compound (B) to prepare a 1.0 mg/mL solution. The solution was then administered in a 1 mL/kg dose (1 mg/kg) through the tail vein under no anesthesia (3 samples). The intravenous administration through tail was performed using a 26G injection needle and a 1 mL syringe. Blood was collected through the subclavian veins after 2, 15, 60, 120, 240 and 360 minutes from the intravenous administration through tail. The blood was centrifuged, and the plasma was used as a sample for blood drug concentration measurement.
2) Preparation of Sample for Drug Concentration Measurement by Oral Administration
SD rats (Charles River, male, 7 weeks of age, 220 to 290 g) were used as experimental animals after fasting the rats overnight. A 0.5% methylcellulose aqueous solution (5 mL) was added with respect to 3 mg of compound (A) or compound (B) (in terms of a free compound) to prepare a 0.6 mg/mL drug solution. Each solution was orally administered to the rats in a 5 mL/kg dose (3 mg/kg) (3 samples each). The oral administration was performed using a rat sonde and a 2.5-mL syringe. […]
A suitable internal standard substance solution (0.1 mL) was added to the blood plasma (0.025 mL) obtained in 1) and 2) using an ordinary method. […] Blood plasma drug concentration was measured using the LC-MS/MS technique under the conditions below. […]
Bioavailability (%) was calculated from the value of the area under the blood drug concentration-time curve determined by using a WinNonlin Professional (Pharsight Corporation) from the blood drug concentration at each time point obtained as above after the intravenous administration of the compound (B) through tail and the oral administration of the compound (A) or the compound (B).

Row | SMILES | saturation solubility in water [1] [µg/mL] | saturation solubility in 1st fluid [1] [µg/mL] | saturation solubility in 2nd fluid [1] [µg/mL] | Purity (%) after 8 days ([2]; after 8 days under 90° C. open conditions) [%] | Purity (%) at initial point ([2]; initial point, before storage) [%] | bioavailability [3] [%] | maximum drug concentration time (Tmax) [3] [h]
1 | COc1cc(F)c(-n2c(=O)[nH]c3csc(C(=O)O)c3c2=O)cc1OCc1c(OC)ccc(F)c1F (single isomer, unassigned) [compound (A), 3-[2-fluoro-5-(2,3-difluoro-6-methoxybenzyloxy)-4-methoxyphenyl]-2,4-dioxo-1,2,3,4-tetrahydrothieno[3,4-d]pyrimidine-5-carboxylic acid choline salt] | 4165 | 4 | 3738 | 99.6 | 99.6 | ~59 | 0.583
2 | COc1cc(F)c(-n2c(=O)[nH]c3csc(C(=O)O)c3c2=O)cc1OCc1c(OC)ccc(F)c1F (single isomer, unassigned) [compound (B), 3-[2-fluoro-5-(2,3-difluoro-6-methoxybenzyloxy)-4-methoxyphenyl]-2,4-dioxo-1,2,3,4-tetrahydrothieno[3,4-d]pyrimidine-5-carboxylic acid, reference compound] | 7 | 0.14 | 367 | – | – | – | 3.33
3 | COc1cc(F)c(-n2c(=O)[nH]c3csc(C(=O)O)c3c2=O)cc1OCc1c(OC)ccc(F)c1F.COc1cc(F)c(-n2c(=O)[nH]c3csc(C(=O)O)c3c2=O)cc1OCc1c(OC)ccc(F)c1F.c1ccc(CNCCNCc2ccccc2)cc1 [compound (C), 3-[2-Fluoro-5-(2,3-difluoro-6-methoxybenzyloxy)-4-methoxyphenyl]-2,4-dioxo-1,2,3,4-tetrahydrothieno[3,4-d]pyrimidine-5-carboxylic acid.1/2N,N′-dibenzylethylenediamine salt, reference compound] | 68 | 2 | 52 | – | – | – | –
